Test results from the NIST ThermoML archive (doi:10.1021/je9005344).
± gives the expanded uncertainty stated by the source.

Assay: xn = mol fraction of the nth substance listed
Conditions: 101 kPa, Liquid; for speed of sound: Pulse-echo method; for mass density: Vibrating tube method

COCCO [2-methoxyethan-1-ol] + CCCCCCCCCCO
Conditions	mass density, 293.15 K [kg/m3]	mass density, 298.15 K [kg/m3]	mass density, 303.15 K [kg/m3]	mass density, 308.15 K [kg/m3]	speed of sound, 293.15 K [m/s]	speed of sound, 298.15 K [m/s]	speed of sound, 303.15 K [m/s]	speed of sound, 308.15 K [m/s]
x1 = 0.0606	832.95 ± 0.23	829.505 ± 0.23	826.05 ± 0.23	822.58 ± 0.23	1393.1 ± 1.2	1375.9 ± 1.2	1359 ± 1.2	1342.2 ± 1.2
x1 = 0.1173	835.952 ± 0.23	832.457 ± 0.23	828.982 ± 0.23	825.482 ± 0.23	1389.5 ± 1.2	1372.4 ± 1.2	1355.4 ± 1.2	1338.6 ± 1.2
x1 = 0.1631	838.564 ± 0.23	835.06 ± 0.23	831.539 ± 0.23	828.008 ± 0.23	1386.6 ± 1.2	1369.5 ± 1.2	1352.6 ± 1.2	1335.8 ± 1.2
x1 = 0.1934	840.414 ± 0.23	836.878 ± 0.23	833.342 ± 0.23	829.786 ± 0.23	1384.7 ± 1.2	1367.5 ± 1.2	1350.6 ± 1.2	1333.8 ± 1.2
x1 = 0.251	844.262 ± 0.23	840.695 ± 0.23	837.111 ± 0.23	833.512 ± 0.23	1380.8 ± 1.2	1363.7 ± 1.2	1346.8 ± 1.2	1330 ± 1.2
x1 = 0.3025	847.887 ± 0.23	844.28 ± 0.23	840.662 ± 0.23	837.024 ± 0.23	1377.5 ± 1.2	1360.4 ± 1.2	1343.5 ± 1.2	1326.7 ± 1.2
x1 = 0.413	856.97 ± 0.23	853.268 ± 0.23	849.553 ± 0.23	845.819 ± 0.23	1370.2 ± 1.2	1353.1 ± 1.2	1336.2 ± 1.2	1319.4 ± 1.2
x1 = 0.517	867.321 ± 0.23	863.518 ± 0.23	859.697 ± 0.23	855.861 ± 0.23	1363.6 ± 1.2	1346.6 ± 1.2	1329.6 ± 1.2	1312.8 ± 1.2
x1 = 0.6285	880.912 ± 0.23	876.98 ± 0.23	873.028 ± 0.23	869.056 ± 0.23	1356.6 ± 1.2	1339.6 ± 1.2	1322.6 ± 1.2	1305.7 ± 1.2
x1 = 0.7087	892.252 ± 0.23	888.913 ± 0.23	884.854 ± 0.23	880.773 ± 0.23	1352.5 ± 1.2	1335.3 ± 1.2	1318.4 ± 1.2	1301.5 ± 1.2
x1 = 0.7965	909.015 ± 0.23	904.836 ± 0.23	900.644 ± 0.23	896.427 ± 0.23	1349.5 ± 1.2	1332.3 ± 1.2	1315.3 ± 1.2	1298.3 ± 1.2
x1 = 0.9382	944.534 ± 0.23	940.097 ± 0.23	935.63 ± 0.23	931.137 ± 0.23	1352.5 ± 1.2	1335.3 ± 1.2	1318.2 ± 1.2	1301.1 ± 1.2

COCCO [2-methoxyethan-1-ol] + CCCCCCCCO
Conditions	mass density, 293.15 K [kg/m3]	mass density, 298.15 K [kg/m3]	mass density, 303.15 K [kg/m3]	mass density, 308.15 K [kg/m3]	speed of sound, 293.15 K [m/s]	speed of sound, 298.15 K [m/s]	speed of sound, 303.15 K [m/s]	speed of sound, 308.15 K [m/s]
x1 = 0.0535	828.636 ± 0.23	825.138 ± 0.23	821.625 ± 0.23	818.089 ± 0.23	1362 ± 1.2	1345 ± 1.2	1328.2 ± 1.2	1311.5 ± 1.2
x1 = 0.1073	832.242 ± 0.23	828.704 ± 0.23	825.153 ± 0.23	821.583 ± 0.23	1359.3 ± 1.2	1342.3 ± 1.2	1325.5 ± 1.2	1308.9 ± 1.2
x1 = 0.1407	834.668 ± 0.23	831.104 ± 0.23	827.528 ± 0.23	823.931 ± 0.23	1357.9 ± 1.2	1340.7 ± 1.2	1323.9 ± 1.2	1307.2 ± 1.2
x1 = 0.2002	839.135 ± 0.23	835.528 ± 0.23	831.905 ± 0.23	828.261 ± 0.23	1354.9 ± 1.2	1337.9 ± 1.2	1321.1 ± 1.2	1304.5 ± 1.2
x1 = 0.2659	844.444 ± 0.23	840.786 ± 0.23	837.111 ± 0.23	833.414 ± 0.23	1351.9 ± 1.2	1334.9 ± 1.2	1318.1 ± 1.2	1301.4 ± 1.2
x1 = 0.2973	847.294 ± 0.23	843.606 ± 0.23	839.904 ± 0.23	836.178 ± 0.23	1350.5 ± 1.2	1333.6 ± 1.2	1316.8 ± 1.2	1300.1 ± 1.2
x1 = 0.3559	852.613 ± 0.23	848.877 ± 0.23	845.122 ± 0.23	841.346 ± 0.23	1348 ± 1.2	1331.1 ± 1.2	1314.2 ± 1.2	1297.5 ± 1.2
x1 = 0.5233	870.97 ± 0.23	870.97 ± 0.23	863.148 ± 0.23	859.203 ± 0.23	1342.3 ± 1.2	1325.3 ± 1.2	1308.5 ± 1.2	1296.6 ± 1.2
x1 = 0.6059	881.954 ± 0.23	867.068 ± 0.23	873.942 ± 0.23	869.902 ± 0.23	1340.4 ± 1.2	1323.4 ± 1.2	1306.5 ± 1.2	1289.7 ± 1.2
x1 = 0.7126	898.662 ± 0.23	877.961 ± 0.23	890.382 ± 0.23	886.205 ± 0.23	1339.7 ± 1.2	1322.6 ± 1.2	1305.7 ± 1.2	1288.8 ± 1.2
x1 = 0.7903	912.569 ± 0.23	908.335 ± 0.24	904.076 ± 0.23	899.757 ± 0.23	1340.9 ± 1.2	1323.9 ± 1.2	1306.9 ± 1.2	1290 ± 1.2
x1 = 0.9202	942.675 ± 0.23	938.234 ± 0.23	933.772 ± 0.23	929.291 ± 0.23	1349.3 ± 1.2	1332.2 ± 1.2	1315 ± 1.2	1298 ± 1.2

COCCO [2-methoxyethan-1-ol] + CCCCCCO
Conditions	mass density, 293.15 K [kg/m3]	mass density, 298.15 K [kg/m3]	mass density, 303.15 K [kg/m3]	mass density, 308.15 K [kg/m3]	speed of sound, 293.15 K [m/s]	speed of sound, 298.15 K [m/s]	speed of sound, 303.15 K [m/s]	speed of sound, 308.15 K [m/s]
x1 = 0.0538	822.792 ± 0.23	819.173 ± 0.23	815.536 ± 0.23	811.869 ± 0.24	1319.2 ± 1.2	1302.3 ± 1.2	1285.5 ± 1.2	1268.9 ± 1.2
x1 = 0.1042	828.127 ± 0.23	824.464 ± 0.23	820.781 ± 0.23	817.068 ± 0.23	1318.3 ± 1.2	1301.4 ± 1.2	1284.6 ± 1.2	1267.9 ± 1.2
x1 = 0.1509	831.771 ± 0.23	828.075 ± 0.23	824.358 ± 0.23	820.611 ± 0.23	1317.7 ± 1.2	1300.8 ± 1.2	1284 ± 1.2	1267.4 ± 1.2
x1 = 0.2055	837.788 ± 0.23	834.043 ± 0.23	830.27 ± 0.23	826.473 ± 0.23	1317.1 ± 1.2	1300.2 ± 1.2	1283.4 ± 1.2	1266.8 ± 1.2
x1 = 0.2405	841.087 ± 0.23	837.314 ± 0.23	833.515 ± 0.23	829.687 ± 0.23	1316.7 ± 1.2	1299.8 ± 1.2	1283.1 ± 1.2	1266.4 ± 1.2
x1 = 0.2987	847.639 ± 0.23	843.81 ± 0.23	839.961 ± 0.23	836.084 ± 0.23	1316.3 ± 1.2	1299.5 ± 1.2	1282.7 ± 1.2	–
x1 = 0.4088	860.712 ± 0.23	856.785 ± 0.23	852.828 ± 0.23	848.853 ± 0.23	1317.3 ± 1.2	1300.5 ± 1.2	1283.6 ± 1.2	1266.9 ± 1.2
x1 = 0.5134	874.132 ± 0.23	870.1 ± 0.23	866.048 ± 0.23	861.965 ± 0.23	1318.6 ± 1.2	1301.7 ± 1.2	1284.8 ± 1.2	1268.1 ± 1.2
x1 = 0.5991	886.614 ± 0.23	882.495 ± 0.23	878.355 ± 0.23	874.185 ± 0.23	1321.2 ± 1.2	1304.2 ± 1.2	1287.3 ± 1.2	1270.6 ± 1.2
x1 = 0.6915	901.59 ± 0.23	897.37 ± 0.23	893.13 ± 0.23	888.857 ± 0.23	1325.9 ± 1.2	1308.8 ± 1.2	1291.9 ± 1.2	1275 ± 1.2
x1 = 0.805	922.045 ± 0.23	917.699 ± 0.23	913.334 ± 0.23	908.936 ± 0.23	1334.2 ± 1.2	1317.1 ± 1.2	1300.1 ± 1.2	1283.2 ± 1.2
x1 = 0.9039	942.54 ± 0.23	938.079 ± 0.23	933.591 ± 0.23	929.076 ± 0.23	1345 ± 1.2	1327.9 ± 1.2	1310.8 ± 1.2	1293.7 ± 1.2
